Measurements taken from patent publication US10196386B2, “Compounds having muscarinic receptor antagonist and beta2 adrenergic receptor agonist activity” (priority 2016, dated 2019).

What was measured:
Human M3 receptor = molecular target: T1, Human M3 receptor (Homo sapiens, UniProt P20309); assay: biochemical; type: binding; conditions: read-out: M3 Range
T1 construct: purchased Perkin Elmer

Human β2 adrenoceptor = molecular target: T2, Human β2 adrenoceptor (Homo sapiens, UniProt P07550); assay: β2 adrenoceptor radioligand binding assay
T2 construct: purchased Perkin Elmer
Description: β2 Adrenoceptor Radioligand Binding Assay
Human β2 adrenoceptor membranes (7.5 ug/well) from Perkin Elmer were incubated with 0.3 nM 125-I Cyanopindolol with or without test compounds, or a saturating concentration of s-propranolol (2 μM) for the determination of non-specific binding. The assay was carried out in 96-well polypropylene plates in a volume of 200 ul. The assay buffer used was 25 mM HEPES, 0.5% BSA (w/v), 1 mM EDTA, 0.02% ascorbic acid (v/v), (pH 7.4). The final assay concentration of DMSO was 0.5% (v/v). The plates were sealed and incubated for 1 h at room temperature on an orbital shaker (slow speed). Membranes were harvested onto 96-well unifilter GF/C filter plates pre-treated with 0.5% polyethyleneimine (v/v), using a filter manifold, washed six times with 200 ul of wash buffer containing 10 mM HEPES and 500 mM NaCl. The plates were dried before addition of 50 μl of microscint-0, sealed then read in a Trilux Microbeta scintillation counter. IC50 values are determined from competition curves using a non-linear curve fitting program. Ki values were calculated from IC50 values by the Cheng and Prusoff equation.

T2 sequence (P07550 whole entry): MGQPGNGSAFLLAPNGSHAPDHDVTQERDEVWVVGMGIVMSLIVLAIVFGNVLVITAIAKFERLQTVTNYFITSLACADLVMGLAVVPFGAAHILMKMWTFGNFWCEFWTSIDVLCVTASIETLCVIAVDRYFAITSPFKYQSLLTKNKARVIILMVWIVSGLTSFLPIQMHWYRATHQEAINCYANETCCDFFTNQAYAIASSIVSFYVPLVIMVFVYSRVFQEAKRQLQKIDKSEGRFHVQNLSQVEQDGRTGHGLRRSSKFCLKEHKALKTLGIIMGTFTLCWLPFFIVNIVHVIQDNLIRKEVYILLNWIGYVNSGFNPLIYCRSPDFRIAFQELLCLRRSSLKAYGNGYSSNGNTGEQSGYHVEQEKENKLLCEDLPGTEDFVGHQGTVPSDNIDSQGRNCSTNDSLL
T1 sequence (P20309 whole entry): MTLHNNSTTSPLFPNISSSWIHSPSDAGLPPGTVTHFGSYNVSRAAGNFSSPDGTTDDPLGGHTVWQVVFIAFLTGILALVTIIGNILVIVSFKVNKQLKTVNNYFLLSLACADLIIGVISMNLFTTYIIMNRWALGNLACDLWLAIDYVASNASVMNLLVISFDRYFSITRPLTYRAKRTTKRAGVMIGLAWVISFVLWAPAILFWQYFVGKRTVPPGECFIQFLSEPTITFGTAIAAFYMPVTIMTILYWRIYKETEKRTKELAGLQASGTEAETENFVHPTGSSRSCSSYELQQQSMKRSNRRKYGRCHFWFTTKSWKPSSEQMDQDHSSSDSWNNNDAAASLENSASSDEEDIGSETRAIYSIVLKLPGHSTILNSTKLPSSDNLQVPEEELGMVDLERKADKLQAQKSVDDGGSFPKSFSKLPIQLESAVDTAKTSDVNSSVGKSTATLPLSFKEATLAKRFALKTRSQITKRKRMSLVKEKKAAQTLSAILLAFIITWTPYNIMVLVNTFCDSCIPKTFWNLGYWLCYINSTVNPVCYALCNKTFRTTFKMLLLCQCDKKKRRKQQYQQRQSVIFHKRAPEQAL

SMILES	IC50 (Human M3 receptor) [nM]	IC50 (Human β2 adrenoceptor) [nM]
O=C(NCc1ccc(-c2cccc([C@](O)(C(=O)OCC3CCN(Cc4ccccc4)CC3)c3ccccc3)c2)s1)c1ccc(CNC[C@H](O)c2ccc(O)c3[nH]c(=O)ccc23)cc1Cl [Compound 1, (1-Benzylpiperidin-4-yl)methyl (S)-2-(3-(5-((2-chloro-4-((((R)-2-hydroxy-2-(8-hydroxy-2-oxo-1,2-dihydroquinolin-5-yl)ethyl)amino)methyl)benzamido-)methyl)thiophen-2-yl)phenyl)-2-hydroxy-2-phenylacetate]	0.3 to 3	< 0.3
O=C(NCc1ccc(-c2cccc([C@](O)(C(=O)OCC3CCN(Cc4ccccc4)CC3)c3ccccc3)c2)s1)c1ccc(CNC[C@H](O)c2ccc(O)c3[nH]c(=O)ccc23)cc1 [Compound 1A, (1-Benzylpiperidin-4-yl)methyl (S)-2-hydroxy-2-(3-(5-((4-((((R)-2-hydroxy-2-(8-hydroxy-2-oxo-1,2-dihydroquinolin-5-yl)ethyl)amino)methyl)benzamido)-methyl)thiophen-2-yl)phenyl)-2-phenylacetate]	0.3 to 3	< 0.3
COc1cc(C(=O)NCc2ccc(-c3cccc([C@](O)(C(=O)OCC4CCN(Cc5ccccc5)CC4)c4ccccc4)c3)s2)ccc1CNC[C@H](O)c1ccc(O)c2[nH]c(=O)ccc12 [Compound 1B, (1-Benzylpiperidin-4-yl)methyl (S)-2-hydroxy-2-(3-(5-((4-((((R)-2-hydroxy-2-(8-hydroxy-2-oxo-1,2-dihydroquinolin-5-yl)ethyl)amino)methyl)-3-methoxybenzamido)methyl)thiophen-2-yl)phenyl)-2-phenylacetate]	0.3 to 3	< 0.3
COc1cc(CNC[C@H](O)c2ccc(O)c3[nH]c(=O)ccc23)ccc1C(=O)NCc1ccc(-c2cccc([C@](O)(C(=O)OCC3CCN(Cc4ccccc4)CC3)c3ccccc3)c2)s1 [Compound 1C, (1-Benzylpiperidin-4-yl)methyl (S)-2-hydroxy-2-(3-(5-((4-((((R)-2-hydroxy-2-(8-hydroxy-2-oxo-1,2-dihydroquinolin-5-yl)ethyl)amino)methyl)-2-methoxybenzamido)methyl)thiophen-2-yl)phenyl)-2-phenylacetate]	0.3 to 3	0.3 to 3
COc1cc(C(=O)NCc2ccc(-c3cccc([C@](O)(C(=O)OCC4CCN(Cc5ccccc5)CC4)c4ccccc4)c3)s2)c(Cl)cc1CNC[C@H](O)c1ccc(O)c2[nH]c(=O)ccc12 [Compound 1D, (1-Benzylpiperidin-4-yl)methyl (S)-2-(3-(5-((2-chloro-4-((((R)-2-hydroxy-2-(8-hydroxy-2-oxo-1,2-dihydroquinolin-5-yl)ethyl)amino)methyl)-5-methoxybenzamido)methyl)thiophen-2-yl)phenyl)-2-hydroxy-2-phenylacetate]	0.3 to 3	< 0.3
COc1cc(C(=O)NCc2ccc(-c3cccc([C@](O)(C(=O)OCC4CCN(Cc5ccccc5)CC4)c4ccccc4)c3)s2)c(F)cc1CNC[C@H](O)c1ccc(O)c2[nH]c(=O)ccc12 [Compound 1E, (1-Benzylpiperidin-4-yl)methyl (S)-2-(3-(5-((2-fluoro-4-((((R)-2-hydroxy-2-(8-hydroxy-2-oxo-1,2-dihydroquinolin-5-yl)ethyl)amino)methyl)-5-methoxybenzamido)methyl)thiophen-2-yl)phenyl)-2-hydroxy-2-phenylacetate]	0.3 to 3	< 0.3
O=C(NCc1ccc(-c2cccc([C@](O)(C(=O)OCC3CCN(Cc4ccccc4)CC3)c3ccccc3)c2)s1)c1ccc(CNC[C@H](O)c2ccc(O)c3[nH]c(=O)ccc23)c(C(F)(F)F)c1 [Compound 1F, (1-Benzylpiperidin-4-yl)methyl (S)-2-hydroxy-2-(3-(5-((4-((((R)-2-hydroxy-2-(8-hydroxy-2-oxo-1,2-dihydroquinolin-5-yl)ethyl)amino)methyl)-3-(trifluoromethyl)benzamido)methyl)thiophen-2-yl)phenyl)-2-phenylacetate]	> 3	0.3 to 3
O=C(NCc1ccc(-c2cccc([C@](O)(C(=O)OCC3CCN(Cc4ccccc4)CC3)c3ccccc3)c2)s1)c1ccc(CNC[C@H](O)c2ccc(O)c3[nH]c(=O)ccc23)cc1F [Compound 1G, (1-Benzylpiperidin-4-yl)methyl (S)-2-(3-(5-((2-fluoro-4-((((R)-2-hydroxy-2-(8-hydroxy-2-oxo-1,2-dihydroquinolin-5-yl)ethyl)amino)methyl)-benzamido)methyl)thiophen-2-yl)phenyl)-2-hydroxy-2-phenylacetate]	0.3 to 3	< 0.3
O=C(NCc1ccc(-c2cccc([C@](O)(C(=O)OCC3CCN(Cc4ccccc4)CC3)c3ccccc3)c2)s1)c1ccc(CCNC[C@H](O)c2ccc(O)c3[nH]c(=O)ccc23)cc1 [Compound 1H, (1-Benzylpiperidin-4-yl)methyl (S)-2-hydroxy-2-(3-(5-((4-(2-(((R)-2-hydroxy-2-(8-hydroxy-2-oxo-1,2-dihydroquinolin-5-yl)ethyl)amino)ethyl)-benzamido)methyl)thiophen-2-yl)phenyl)-2-phenylacetate]	0.3 to 3	0.3 to 3
CCOc1cc(C(=O)NCc2ccc(-c3cccc([C@](O)(C(=O)OCC4CCN(Cc5ccccc5)CC4)c4ccccc4)c3)s2)ccc1CNC[C@H](O)c1ccc(O)c2[nH]c(=O)ccc12 [Compound 1I, (1-Benzylpiperidin-4-yl)methyl (S)-2-(3-(5-((3-ethoxy-4-((((R)-2-hydroxy-2-(8-hydroxy-2-oxo-1,2-dihydroquinolin-5-yl)ethyl)amino)methyl)-benzamido)methyl)thiophen-2-yl)phenyl)-2-hydroxy-2-phenylacetate]	0.3 to 3	0.3 to 3
O=C(NCc1ccc(-c2cccc([C@](O)(C(=O)OCC3CCN(Cc4ccccc4)CC3)c3ccccc3)c2)s1)c1ccc(CNC[C@H](O)c2ccc(O)c3[nH]c(=O)ccc23)c(F)c1 [Compound 1J, (1-Benzylpiperidin-4-yl)methyl (S)-2-(3-(5-((3-fluoro-4-((((R)-2-hydroxy-2-(8-hydroxy-2-oxo-1,2-dihydroquinolin-5-yl)ethyl)amino)methyl)-benzamido)methyl)thiophen-2-yl)phenyl)-2-hydroxy-2-phenylacetate]	0.3 to 3	< 0.3
COc1c(CNC[C@H](O)c2ccc(O)c3[nH]c(=O)ccc23)ccc(C(=O)NCc2ccc(-c3cccc([C@](O)(C(=O)OCC4CCN(Cc5ccccc5)CC4)c4ccccc4)c3)s2)c1F [Compound 1K, (1-Benzylpiperidin-4-yl)methyl (S)-2-(3-(5-((2-fluoro-4-((((R)-2-hydroxy-2-(8-hydroxy-2-oxo-1,2-dihydroquinolin-5-yl)ethyl)amino)methyl)-3-methoxybenzamido)methyl)thiophen-2-yl)phenyl)-2-hydroxy-2-phenylacetate]	0.3 to 3	< 0.3
O=C(NCc1ccc(-c2cccc([C@](O)(C(=O)OCC3CCN(Cc4ccccc4)CC3)c3ccccc3)c2)s1)c1ccc(CNC[C@H](O)c2ccc(O)c3[nH]c(=O)ccc23)nc1 [Compound 1L, (1-Benzylpiperidin-4-yl)methyl (S)-2-hydroxy-2-(3-(5-((6-((((R)-2-hydroxy-2-(8-hydroxy-2-oxo-1,2-dihydroquinolin-5-yl)ethyl)amino)methyl)-nicotinamido)methyl)thiophen-2-yl)phenyl)-2-phenylacetate]	0.3 to 3	< 0.3
COc1cc(C(=O)NCc2ccc(-c3cccc([C@](O)(C(=O)OCC4CCN(Cc5ccccc5)CC4)c4ccccc4)c3)s2)cc(F)c1CNC[C@H](O)c1ccc(O)c2[nH]c(=O)ccc12 [Compound 1M, (1-Benzylpiperidin-4-yl)methyl (S)-2-(3-(5-((3-fluoro-4-((((R)-2-hydroxy-2-(8-hydroxy-2-oxo-1,2-dihydroquinolin-5-yl)ethyl)amino)methyl)-5-methoxybenzamido)methyl)thiophen-2-yl)phenyl)-2-hydroxy-2-phenylacetate]	0.3 to 3	0.3 to 3
CN1CCC(OC(=O)[C@](O)(c2ccccc2)c2cccc(-c3ccc(CNC(=O)c4ccc(CNC[C@H](O)c5ccc(O)c6[nH]c(=O)ccc56)cc4)s3)c2)CC1 [Compound 2, 1-Methylpiperidin-4-yl (S)-2-hydroxy-2-(3-(5-((4-((((R)-2-hydroxy-2-(8-hydroxy-2-oxo-1,2-dihydroquinolin-5-yl)ethyl)amino)methyl)benzamido)-methyl)thiophen-2-yl)phenyl)-2-phenylacetate]	–	< 0.3
O=C(NCc1ccc(-c2cccc([C@](O)(C(=O)OC[C@H]3CCCN(Cc4ccccc4)C3)c3ccccc3)c2)s1)c1ccc(CNC[C@H](O)c2ccc(O)c3[nH]c(=O)ccc23)cc1 [Compound 2C, ((S)-1-Benzylpiperidin-3-yl)methyl (S)-2-hydroxy-2-(3-(5-((4-((((R)-2-hydroxy-2-(8-hydroxy-2-oxo-1,2-dihydroquinolin-5-yl)ethyl)amino)-methyl)benzamido)methyl)thiophen-2-yl)phenyl)-2-phenylacetate]	–	0.3 to 3
O=C(NCc1ccc(-c2cccc([C@](O)(C(=O)OC3CCN(Cc4ccccc4)CC3)c3ccccc3)c2)s1)c1ccc(CNC[C@H](O)c2ccc(O)c3[nH]c(=O)ccc23)cc1 [Compound 2F, 1-Benzylpiperidin-4-yl (S)-2-hydroxy-2-(3-(5-((4-((((R)-2-hydroxy-2-(8-hydroxy-2-oxo-1,2-dihydroquinolin-5-yl)ethyl)amino)methyl)-benzamido)methyl)thiophen-2-yl)phenyl)-2-phenylacetate]	–	< 0.3
